Consider 9 molecules from patent US20060121047A1, “Use of hmgb polypetides for increasing immune responses” (priority 2002, published 2006).

The test system of one series is RAW 264.7 cells. The conditions noted are these: polymyxin B alone, 100-1,000 units/ml; cited from earlier work.
The test system of series [1] is Murine macrophage-like RAW 264.7 cells. In words: TNF release from RAW 264.7 cells (L929 cytotoxicity bioassay). Format: cell-based. The conditions noted are these: for TNF release by synthetic peptide fragment of the B box: 10 μg/ml synthetic peptide, 10 hours (FIG. 3); for TNF release: 1 μg/ml protein, 8 hours, RAW 264.7 cells (FIG. 1). As to the method: Murine macrophage-like RAW 264.7 cells (American Type Culture Collection, Rockville, Md.) were cultured in RPMI 1640 medium (Life Technologies, Grand Island N.Y.) supplemented with 10% fetal bovine serum (Gemini, Catabasas, Calif.), penicillin and streptomycin (Life Technologies) and were used at 90% confluence in serum-free Opti-MEM I medium (Life Technologies, Grand Island, N.Y.). […] Polymyxin B was not used in experiments of synthetic peptide studies.
TNF release was measured by a standard murine fibroblast L929 (ATCC, American Type Culture Collection, Rockville, Md.) cytotoxicity bioassay (Bianchi et al., Journal of Experimental Medicine 183:927-936, 1996) with the minimum detectable concentration of 30 pg/ml. Recombinant mouse TNF was obtained from R&D system Inc., (Minneapolis, MN). Murine fibroblast L929 cells (ATCC) were cultured in DMEM (Life Technologies, Grand Island, N.Y.) supplemented with 10% fetal bovine serum (Gemini, Catabasas, Calif.), penicillin (50 units/ml) and streptomycin (50 μg/ml) (Life Technologies) in a humidified incubator with 5% CO2.
The effect of the mutants on TNF release from Murine macrophage-like RAW 264.7 cells (ATCC) was carried out as follows. RAW 264.7 cells were cultured in RPMI 1640 medium (Life Technologies, Grand Island N.Y.) supplemented with 10% fetal bovine serum (Gemini, Catabasas, Calif.), penicillin and streptomycin (Life Technologies). Polymyxin (Sigma, St. Louis, Mo.) was added at 100 units/ml to suppress the activity of any contaminating LPS. Cells were incubated with 1 μg/ml of full length (wild-type) HMGB1 and each HMGB1 mutant protein in Opti-MEM I medium for 8 hours, and conditioned supernatants (containing TNF which had been released from the cells) were collected and TNF released from the cells was measured by a standard murine fibroblast L929 (ATCC) cytotoxicity bioassay (Bianchi et al., supra) with the minimum detectable concentration of 30 pg/ml. Recombinant mouse TNF was obtained from R & D Systems Inc., (Minneapolis, Minn.) and used as control in these experiments. Data in FIG. 1 are all presented as mean+SEM unless otherwise indicated. (=6−10).
To further examine the effect of HMGB1 B box on cytokine production, varying amounts of HMGB1 B box were evaluated for the effects on TNF, IL-1B, and IL-6 production in murine macrophage-like RAW 264.7 cells. Conditioned media were harvested and measured for TNF, IL-1β and IL-6 levels. TNF levels were measured as described herein, and IL-1β and IL-6 levels were measured using the mouse IL-1β and IL-6 enzyme-linked immunosorbent assay (ELISA) kits (R&D System Inc., Minneapolis, 1) and N>5 for all experiments.
The kinetics of B box-induced TNF release was also examined. TNF release and TNF mRNA expression was measured in RAW 264.7 cells induced by B box polypeptide or GST tag polypeptide only used as a control (vector) (10 μg/ml) for 0 to 48 hours. Supernatants were analyzed for TNF protein levels by an L929 cytotoxicity assay (N=3-5) as described herein. For mRNA measurement, cells were plated in 100 mm plate and treated in Opti-MEM I medium containing B box polypeptide or the vector alone for 0, 4, 8, or 24 hours, as indicated in FIG. 2D. The vector only sample was assayed at the 4 hour time point. Cells were scraped off the plate and total RNA was isolated by RNAzol B method in accordance with the manufacturer's instructions (Tel-Test “B”, Inc., Friendswood, Tex.). TNF (287 bp) was measured by RNase protection assay (Ambion, Austin, Tex.). Equal loading and the integrity of RNA was verified by ethidium bromide staining of the RNA sample on agarose-formaldehyde gel. […] TNF mRNA expression was maximal at 4 hours and decreased at 8 and 24 hours. […] A similar study was carried out measuring TNF protein released from RAW 264.7 cells 0, 4, 8, 24, 32 or 48 hours after administration of B box or vector only (GST tag), using the L929 cytotoxicity assay described herein. […] Data are representative of three separate experiments. […]

With Polymyxin B, the cell viability entry in the series on RAW 264.7 cells is “did not influence cell viability”.

Regarding “45-64: Synthetic peptide, amino acids 45-64 of the HMGB1 B box (SEQ ID NO: 20) (WNNTAADDKQPYEKKAAKLK; listed as Homo sapiens)”, the “TNF release by synthetic peptide fragment of the B box” value (“TNF release … of the B box” below) in series [1] is given as “did not induce TNF release”.

For “16-25: Synthetic peptide, amino acids 16-25 of the HMGB1 B box (SEQ ID NO: 20) (LFCSEYRPKI; listed as Homo sapiens)”, the “TNF release … of the B box” value in series [1] is “did not induce TNF release”.

For the molecule “30-49: Synthetic peptide, amino acids 30-49 of the HMGB1 B box (SEQ ID NO: 20) (PGLSIGDVAKKLGEMWNNTA; listed as Homo sapiens)”, the “TNF release … of the B box” value in series [1] is listed as “did not induce TNF release”.

Take “fkdpnapkrlpsafflfcse (FKDPNAPKRLPSAFFLFCSE; listed as Homo sapiens) [1-20-mer]”: the “TNF release … of the B box” value in series [1] is “TNF-stimulating activity was retained”. For the same molecule, the “TNF stimulating activity relative to full length synthetic B box (1-74-mer) or full length HMGB1” value in series [1] (peptide 10 μg/ml, 10 hours) was “less potent”.

Turning to “60-74: Synthetic peptide, amino acids 60-74 of the HMGB1 B box (SEQ ID NO: 20) (AAKLKEKYEKDIAAY; listed as Homo sapiens)”, the “TNF release … of the B box” value in series [1] was “did not induce TNF release”.

B1: wild-type HMGB1: Recombinant full length human HMGB1, SEQ ID NO: 18 (protein, listed as Homo sapiens)
chain: MGKGDPKKPTGKMSSYAFFVQTCREEHKKKHPDASVNFSEFSKKCSERWKTMSAKEKGKFEDMAKADKARYEREMKTYIPPKGETKKKFKDPNAPKRLPSAFFLFCSEYRPKIKGEHPGLSIGDVAKKLGEMWNNTAADDKQPYEKKAAKLKEKYEKDIAAYRAKGKPDAAKKGVVKAEKSKKKKEEEEDEEDEEDEEEEEDEEDEEDEEEDDDDE
Regarding B1, in series [1], the TNF release entry is “significantly stimulated TNF release”.

B2: carboxyl-truncated HMGB1: Human HMGB1 mutant in which the carboxy terminus was deleted, SEQ ID NO: 19 (protein, listed as Homo sapiens)
chain: MGKGDPKKPTGKMSSYAFFVQTCREEHKKKHPDASVNFSEFSKKCSERWKTMSAKEKGKFEDMAKADKARYEREMKTYIPPKGETKKKFKDPNAPKRLPSAFFLFCSEYRPKIKGEHPGLSIGDVAKKLGEMWNNTAADDKQPYEKKAAKLKEKYEKDIAAYRAKGKPDAAKKGVVKAEKSK
For B2, the TNF release result in series [1] was “significantly stimulated TNF release”.

B3: A box: Human HMGB1 mutant containing only the A box (amino terminus + A box), SEQ ID NO: 21 (protein, listed as Homo sapiens)
chain: MGKGDPKKPTGKMSSYAFFVQTCREEHKKKHPDASVNFSEFSKKCSERWKTMSAKEKGKFEDMAKADKARYEREMKTYIPPKGET
For the molecule B3, the TNF release result in series [1] is reported as “only weakly activated TNF release”.
